In US11851391B2, “Antifungal compounds and methods of forming the same” (University of Kentucky Research Foundation, priority 2018, dated 2023):
In brackets after ≈: the same amount, converted by molar mass. Read-outs that look alike come from different tables or passages of the source.

How the values were obtained:
[1] = test system: Candida glabrata ATCC 2001 (strain H); assay: MIC determination, in vitro antifungal assay (CLSI M27-A3); type: cell-based; settings: MIC-0, 48 h at 35° C.
In short: (§1)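 Inoculum 2-4×10^3 CFU/mL from overnight YPD culture (OD600 0.12 ≈ 1×10^6 CFU/mL). DMSO <1.25% final.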

[2] = test system: Candida krusei ATCC 6258 (strain I); assay: as above; type: cell-based; settings: MIC-0, 48 h at 35° C.
In short: as §1

[3] = test system: C. albicans ATCC MYA-1003(R) (strain G); assay: as above; type: cell-based, Candida albicans; settings: MIC-0, 48 h at 35° C.
In short: as §1

[4] = test system: C. albicans ATCC MYA-2876(S) (strain C); assay: as above; type: cell-based, Candida albicans; settings: MIC-0, 48 h at 35° C.
In short: as §1

[5] = test system: murine red blood cells (mRBCs); settings: for Percentage of hemolysis (±SDEV): mouse, 60 min
Protocol: Thus, the hemolytic activity for these bishydrazones was investigated against murine red blood cells (mRBCs).
Murine red blood cells (mRBCs) were prepared by suspending 1 mL of murine blood in 3 mL of PBS prior to centrifugation at 1,000 rpm for 5 min. The mRBCs were washed four times in PBS and resuspended in the same buffer to a final concentration of 10^7 mRBC/mL. […] The tubes were incubated at 37° C. for 60 min. […] Eppendorf tubes containing 200 μL of ddH2O and 2 μL of 1% v/v Triton™ X-100 served as negative (blank) and positive controls, respectively. The percentage of hemolysis was calculated using the following equation: % hemolysis=[(absorbance of sample)−(absorbance of blank)]×100/(absorbance of positive control).

[6] = test system: C. albicans ATCC 64124(R) (strain B); assay: MIC determination, in vitro antifungal assay (CLSI M27-A3); type: cell-based, Candida albicans; settings: strain B, MIC-0, 48 h at 35° C.
In short: (§2)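 Yeast from a single colony is grown overnight in YPD at 35° C with shaking, adjusted to OD600 0.12, then diluted into RPMI 1640 to 2-4×10^3 CFU/mL. Compounds are tested by modified CLSI M27-A3 microdilution, DMSO <1.25%, and MIC is scored as complete inhibition.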

[7] = test system: C. albicans ATCC MYA-2310(S) (strain E); assay: as above; type: cell-based, Candida albicans; settings: MIC-0, 48 h at 35° C.
In short: as §2

[8] = test system: C. albicans ATCC MYA-1237(R) (strain F); assay: as above; type: cell-based, Candida albicans; settings: MIC-0, 48 h at 35° C.
In short: as §2

[9] = test system: C. albicans ATCC 90819(R) (strain D); assay: as above; type: cell-based, Candida albicans; settings: MIC-0, 48 h at 35° C.
In short: as §2

[10] = Nakaseomyces glabratus, ATCC2001, 48 h, read-out: MIC
[11] = Pichia kudriavzevii, ATCC6258, 48 h, read-out: MIC
[12] = Candida albicans, 48 h, read-out: MIC
[13] = Candida albicans, ATCC64124, 48 h, read-out: MIC
[14] = Candida albicans, ATCC90819, 48 h, read-out: MIC

Structure (SMILES) | MIC [1, 10] | MIC [2] | MIC [2, 11] | MIC [3, 12] | MIC [3] | MIC [4, 12] | hemolytic activity (in words) [5] | Percentage of hemolysis (±SDEV) ([5]; 0.975 μg/mL) | Percentage of hemolysis (±SDEV) ([5]; 1.95 μg/mL) | Percentage of hemolysis (±SDEV) ([5]; 3.9 μg/mL) | Percentage of hemolysis (±SDEV) ([5]; 7.8 μg/mL) | Percentage of hemolysis (±SDEV) ([5]; 15.6 μg/mL) | Percentage of hemolysis (±SDEV) ([5]; 31.3 μg/mL) | MIC [6, 13] | MIC [7, 12] | MIC [8, 12] | MIC [9, 14] | MIC [4] | MIC [8] | MIC [9] | further results
C(=N\Nc1ccccc1)/c1ccc(-c2cccc(/C=N/Nc3ccccc3)c2)cc1 [Compound 7a] | > 31.3 µg/mL | 7.8 µg/mL (≈ 20 µM) | 7.8 to 15.6 µg/mL (≈ 20 to 39.9 µM) | 1.95 to 3.9 µg/mL (≈ 4.99 to 9.99 µM) | 3.9 µg/mL (≈ 9.99 µM) | 31.3 µg/mL (≈ 80.2 µM) | lack of hemolytic activity | 0% | 3.5 ± 3.3% | 1.5 ± 0.9% | 8.5 ± 5.1% | 14.1 ± 0.1% | 16.7 ± 0.9% | 31.3 µg/mL (≈ 80.2 µM) | 31.3 µg/mL (≈ 80.2 µM) | 31.3 µg/mL (≈ 80.2 µM) | 31.3 µg/mL (≈ 80.2 µM) | – | – | – | –
Fc1cccc(N/N=C/c2ccc(-c3cccc(/C=N/Nc4cccc(F)c4)c3)cc2)c1 [Compound 12a] | > 31.3 µg/mL | 1.95 µg/mL (≈ 4.57 µM) | 1.95 to 3.9 µg/mL (≈ 4.57 to 9.14 µM) | 7.8 to 15.6 µg/mL (≈ 18.3 to 36.6 µM) | 7.8 µg/mL (≈ 18.3 µM) | 7.8 to 15.6 µg/mL (≈ 18.3 to 36.6 µM) | lack of hemolytic activity | 4.6 ± 2.5% | 0.6 ± 0.6% | 2.5 ± 2.7% | 7.9 ± 0.1% | – | 32.6 ± 9.6% | > 31.3 µg/mL | > 31.3 µg/mL | 7.8 to 15.6 µg/mL (≈ 18.3 to 36.6 µM) | 7.8 to 15.6 µg/mL (≈ 18.3 to 36.6 µM) | 7.8 µg/mL (≈ 18.3 µM) | 15.6 µg/mL (≈ 36.6 µM) | 15.6 µg/mL (≈ 36.6 µM) | Percentage of hemolysis (±SDEV) ([5]; 62.5 μg/mL): 39.5 ± 12.1%
COc1ccc(N/N=C/c2ccc(-c3cccc(/C=N/Nc4ccc(OC)cc4)c3)cc2)cc1 [Compound 15a] | – | 3.9 µg/mL (≈ 8.66 µM) | 1.95 to 3.9 µg/mL (≈ 4.33 to 8.66 µM) | – | – | 1.95 to 3.9 µg/mL (≈ 4.33 to 8.66 µM) | lack of hemolytic activity | 2.6 ± 3.4% | 4.5 ± 1.7% | 3.0 ± 1.6% | 2.6 ± 2.8% | 7.8 ± 3.3% | 9.6 ± 1.7% | 15.6 µg/mL (≈ 34.6 µM) | – | 1.95 to 3.9 µg/mL (≈ 4.33 to 8.66 µM) | 1.95 to 3.9 µg/mL (≈ 4.33 to 8.66 µM) | 3.9 µg/mL (≈ 8.66 µM) | 3.9 µg/mL (≈ 8.66 µM) | 3.9 µg/mL (≈ 8.66 µM) | –
COc1ccc(N/N=C/c2ccc(-c3ccc(/C=N/Nc4ccc(OC)cc4)cc3)cc2)cc1 [Compound 15b] | 7.8 to 15.6 µg/mL (≈ 17.3 to 34.6 µM) | 7.8 µg/mL (≈ 17.3 µM) | 7.8 to 15.6 µg/mL (≈ 17.3 to 34.6 µM) | 7.8 to 15.6 µg/mL (≈ 17.3 to 34.6 µM) | 7.8 µg/mL (≈ 17.3 µM) | 7.8 to 15.6 µg/mL (≈ 17.3 to 34.6 µM) | lack of hemolytic activity | 1.6 ± 2.3% | 1.9 ± 0.3% | 2.8 ± 0.6% | 4.2 ± 3.1% | 6.7 ± 2.0% | 12.6 ± 4.7% | 3.9 µg/mL (≈ 8.66 µM) | 3.9 µg/mL (≈ 8.66 µM) | 7.8 to 15.6 µg/mL (≈ 17.3 to 34.6 µM) | 7.8 to 15.6 µg/mL (≈ 17.3 to 34.6 µM) | 7.8 µg/mL (≈ 17.3 µM) | 15.6 µg/mL (≈ 34.6 µM) | 7.8 µg/mL (≈ 17.3 µM) | MIC [1]: 7.8 µg/mL (≈ 17.3 µM); MIC [6]: 3.9 µg/mL (≈ 8.66 µM); MIC [7]: 3.9 µg/mL (≈ 8.66 µM)
